Experimental data: ChEMBL document CHEMBL3286192, “Late-Stage C-H Coupling Enables Rapid Identification of HDAC Inhibitors: Synthesis and Evaluation of NCH-31 Analogues” (ACS Med Chem Lett, 2014)
Activity calls are given as the source filed them. The rule behind the calls is not given here.

Experiments:
[1] = target: T1, Protein deacetylase HDAC6 (Homo sapiens) (UniProt Q9UBN7); assay: Inhibition of human HDAC6 at 1 uM by HDAC-Glo assay
T1 sequence (whole entry): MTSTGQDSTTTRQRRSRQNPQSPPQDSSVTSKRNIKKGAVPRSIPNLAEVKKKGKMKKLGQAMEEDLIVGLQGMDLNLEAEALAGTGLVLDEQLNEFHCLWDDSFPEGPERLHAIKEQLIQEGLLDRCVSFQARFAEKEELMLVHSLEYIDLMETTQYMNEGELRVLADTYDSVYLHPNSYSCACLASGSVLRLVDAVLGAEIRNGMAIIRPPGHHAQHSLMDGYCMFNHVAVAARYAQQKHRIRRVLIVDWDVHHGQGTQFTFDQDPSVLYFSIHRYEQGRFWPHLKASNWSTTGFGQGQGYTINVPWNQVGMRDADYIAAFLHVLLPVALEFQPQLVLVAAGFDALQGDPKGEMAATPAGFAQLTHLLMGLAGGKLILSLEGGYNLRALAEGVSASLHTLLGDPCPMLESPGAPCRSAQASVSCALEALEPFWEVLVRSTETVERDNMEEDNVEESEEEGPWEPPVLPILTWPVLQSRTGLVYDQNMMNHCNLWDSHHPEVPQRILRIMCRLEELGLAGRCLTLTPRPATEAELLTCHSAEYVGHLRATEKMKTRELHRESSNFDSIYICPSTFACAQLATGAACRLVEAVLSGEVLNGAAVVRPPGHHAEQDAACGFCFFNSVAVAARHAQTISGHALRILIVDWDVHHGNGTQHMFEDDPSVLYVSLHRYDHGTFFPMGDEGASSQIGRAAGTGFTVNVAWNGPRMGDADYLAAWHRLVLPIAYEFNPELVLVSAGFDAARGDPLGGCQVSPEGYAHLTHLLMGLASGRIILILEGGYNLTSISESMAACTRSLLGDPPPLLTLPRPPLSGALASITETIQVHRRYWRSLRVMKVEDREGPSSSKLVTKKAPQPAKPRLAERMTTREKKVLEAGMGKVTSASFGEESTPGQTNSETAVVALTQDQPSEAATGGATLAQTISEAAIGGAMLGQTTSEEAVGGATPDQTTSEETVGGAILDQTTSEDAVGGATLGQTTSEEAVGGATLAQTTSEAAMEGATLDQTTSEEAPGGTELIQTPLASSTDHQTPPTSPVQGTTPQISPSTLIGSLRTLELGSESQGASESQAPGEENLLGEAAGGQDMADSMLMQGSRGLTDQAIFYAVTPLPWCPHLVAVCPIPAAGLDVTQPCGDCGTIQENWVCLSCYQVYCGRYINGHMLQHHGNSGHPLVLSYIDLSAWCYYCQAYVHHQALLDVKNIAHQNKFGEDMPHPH

[2] = target: T2, Protein deacetylase HDAC6 (Homo sapiens, UniProt Q9UBN7); assay: Inhibition of human HDAC6 by HDAC-Glo assay
T2 sequence (Q9UBN7 whole entry): T1 sequence (whole entry)

[3] = target: T3, Histone deacetylase 9 (Homo sapiens, UniProt Q9UKV0); assay: Inhibition of human HDAC9 at 0.1 uM by HDAC-Glo assay
T3 sequence (Q9UKV0 whole entry): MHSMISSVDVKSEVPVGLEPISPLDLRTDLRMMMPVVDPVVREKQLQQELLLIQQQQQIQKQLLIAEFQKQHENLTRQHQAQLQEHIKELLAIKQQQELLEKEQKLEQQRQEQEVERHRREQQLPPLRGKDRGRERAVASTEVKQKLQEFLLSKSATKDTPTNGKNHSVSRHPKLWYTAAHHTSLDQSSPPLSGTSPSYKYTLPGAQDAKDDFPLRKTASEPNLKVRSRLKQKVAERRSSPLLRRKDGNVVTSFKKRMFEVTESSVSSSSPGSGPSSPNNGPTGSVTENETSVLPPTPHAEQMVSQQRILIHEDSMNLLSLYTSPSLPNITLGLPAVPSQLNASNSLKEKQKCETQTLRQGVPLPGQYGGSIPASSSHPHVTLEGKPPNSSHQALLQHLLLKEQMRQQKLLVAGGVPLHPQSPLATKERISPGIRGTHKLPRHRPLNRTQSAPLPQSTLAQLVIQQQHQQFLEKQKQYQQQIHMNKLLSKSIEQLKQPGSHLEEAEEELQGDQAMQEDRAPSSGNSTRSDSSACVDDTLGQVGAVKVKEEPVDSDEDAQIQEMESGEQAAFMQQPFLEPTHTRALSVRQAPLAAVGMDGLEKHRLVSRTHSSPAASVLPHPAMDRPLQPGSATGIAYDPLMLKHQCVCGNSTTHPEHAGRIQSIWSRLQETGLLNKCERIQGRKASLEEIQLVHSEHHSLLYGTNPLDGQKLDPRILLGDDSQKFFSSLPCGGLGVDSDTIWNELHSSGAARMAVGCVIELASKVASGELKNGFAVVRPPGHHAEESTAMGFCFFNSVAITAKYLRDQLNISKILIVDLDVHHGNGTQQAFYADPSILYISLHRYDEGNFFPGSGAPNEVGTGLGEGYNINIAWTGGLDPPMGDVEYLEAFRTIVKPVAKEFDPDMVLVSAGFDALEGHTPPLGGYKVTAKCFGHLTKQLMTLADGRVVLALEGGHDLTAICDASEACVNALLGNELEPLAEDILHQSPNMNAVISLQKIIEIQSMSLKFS

[4] = target: T4, Histone deacetylase 1 (Homo sapiens, UniProt Q13547); assay: Inhibition of human HDAC1 by HDAC-Glo assay
T4 sequence (Q13547 whole entry): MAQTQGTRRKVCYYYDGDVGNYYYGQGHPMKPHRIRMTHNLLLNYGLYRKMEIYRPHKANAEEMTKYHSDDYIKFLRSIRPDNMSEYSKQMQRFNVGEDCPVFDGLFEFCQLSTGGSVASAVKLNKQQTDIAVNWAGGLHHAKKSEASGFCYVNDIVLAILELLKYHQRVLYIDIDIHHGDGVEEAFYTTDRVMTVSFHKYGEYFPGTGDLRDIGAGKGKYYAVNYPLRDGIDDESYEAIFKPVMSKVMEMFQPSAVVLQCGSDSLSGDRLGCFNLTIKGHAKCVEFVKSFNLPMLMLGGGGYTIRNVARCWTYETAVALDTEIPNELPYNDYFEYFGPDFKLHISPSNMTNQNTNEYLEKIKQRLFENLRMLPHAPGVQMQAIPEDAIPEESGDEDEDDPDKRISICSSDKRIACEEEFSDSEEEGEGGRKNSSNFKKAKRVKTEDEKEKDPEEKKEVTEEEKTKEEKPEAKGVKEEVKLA

[5] = target: T3, Histone deacetylase 9; assay: Inhibition of human HDAC9 by HDAC-Glo assay
[6] = target: T4, Histone deacetylase 1; conditions: at 0.1 µM

Compound | inhibition [1] | IC50 [2] | inhibition [3] | IC50 [4] | IC50 [5] | inhibition [6]
O=C(CCCCCCS)Nc1nc(-c2cccc(Cl)c2)cs1 |  |  |  |  |  | Active
O=C(CCCCCCS)Nc1nc(-c2ccc(OC(F)(F)F)cc2)cs1 |  |  |  |  |  | Active
COc1cc(OC)cc(-c2csc(NC(=O)CCCCCCS)n2)c1 |  |  |  |  |  | Active
Cc1ccc(-c2csc(NC(=O)CCCCCCS)n2)cc1 |  |  | Active | 57 nM | 42 nM | Active
CCCCc1ccc(-c2csc(NC(=O)CCCCCCS)n2)cc1 |  |  |  |  |  | Active
O=C(CCCCCCS)Nc1nc(-c2ccccc2)cs1 |  | 230 nM |  | 96 nM | 82 nM | 
Cc1ccc(-c2csc(NC(=O)CCCCCCS)n2)cc1F |  | 6100 nM | Active | 50 nM | 62 nM | Active
O=C(CCCCCCS)Nc1nc(-c2ccc(F)cc2)cs1 |  | 550 nM | Active | 36 nM | 57 nM | Active
Cc1cc(C)cc(-c2csc(NC(=O)CCCCCCS)n2)c1 |  |  |  |  |  | Active
COc1c(C)cc(-c2csc(NC(=O)CCCCCCS)n2)cc1C |  |  |  |  |  | Active

Further lines, results first:

inhibition [1] | IC50 [2] | inhibition [3] | IC50 [4] | IC50 [5] | inhibition [6] | Compound
70% | 150 nM | Active | 49 nM | 78 nM | Active | O=C(CCCCCCS)Nc1nc(-c2cccc(F)c2)cs1
 |  |  |  |  | Active | CC(C)(C)c1ccc(-c2csc(NC(=O)CCCCCCS)n2)cc1
 |  |  |  |  | Active | COc1ccc(-c2csc(NC(=O)CCCCCCS)n2)cc1
 |  |  |  |  | Active | COc1ccc(-c2csc(NC(=O)CCCCCCS)n2)cc1C
70% |  |  |  |  | Active | COc1cccc(-c2csc(NC(=O)CCCCCCS)n2)c1
 |  |  |  |  | Active | Cc1cccc(-c2csc(NC(=O)CCCCCCS)n2)c1
 |  |  |  |  | inactive | CN(C(=O)CCCCCCS)c1nc(-c2ccccc2)cs1
